# Reference: ChEMBL document CHEMBL1926642, “Relevance of the C-5 position to schweinfurthin induced cytotoxicity” (2011)
# Assays:
# Assay type in all cases: functional
# [1] = tested on: MOLT-4; test: Growth inhibition of human MOLT4 cells after 48 hrs by sulforhodamine B assay; details: MOLT-4, 48 h; for TGI: read-out: pTGI (converted)
# [2] = tested on: HOP-62; test: Growth inhibition of human HOP62 cells after 48 hrs by sulforhodamine B assay; details: HOP-62, 48 h; for TGI: read-out: pTGI (converted)
# [3] = tested on: NCI-H226; test: Growth inhibition of human NCI-H226 cells after 48 hrs by sulforhodamine B assay; details: NCI-H226, 48 h; for TGI: read-out: pTGI (converted)
# [4] = tested on: NCI-H322M; test: Growth inhibition of human NCI-H322M cells after 48 hrs by sulforhodamine B assay; details: for TGI: read-out: pTGI (converted)
# [5] = tested on: NCI-H522; test: Growth inhibition of human NCI-H522 cells after 48 hrs by sulforhodamine B assay; details: NCI-H522, 48 h; for TGI: read-out: pTGI (converted)
# [6] = tested on: COLO 205; test: Growth inhibition of human COLO205 cells after 48 hrs by sulforhodamine B assay; details: COLO 205, 48 h; for TGI: read-out: pTGI (converted)
# [7] = tested on: HCC 2998; test: Growth inhibition of human HCC2998 cells after 48 hrs by sulforhodamine B assay; details: HCC 2998, 48 h; for TGI: read-out: pTGI (converted)
# [8] = tested on: HCT-15; test: Growth inhibition of human HCT15 cells after 48 hrs by sulforhodamine B assay; details: HCT-15, 48 h; for TGI: read-out: pTGI (converted)
# [9] = tested on: HT-29; test: Growth inhibition of human HT-29 cells after 48 hrs by sulforhodamine B assay; details: HT-29, 48 h; for TGI: read-out: pTGI (converted)
# [10] = tested on: KM12; test: Growth inhibition of human KM12 cells after 48 hrs by sulforhodamine B assay; details: KM12, 48 h; for TGI: read-out: pTGI (converted)
# [11] = tested on: SW-620; test: Growth inhibition of human SW620 cells after 48 hrs by sulforhodamine B assay; details: SW-620, 48 h; for TGI: read-out: pTGI (converted)
# [12] = tested on: U-251; test: Growth inhibition of human U251 cells after 48 hrs by sulforhodamine B assay; details: U-251, 48 h; for TGI: read-out: pTGI (converted)
# [13] = tested on: LOX IMVI; test: Growth inhibition of human LOXIMVI cells after 48 hrs by sulforhodamine B assay; details: for TGI: read-out: pTGI (converted)
# [14] = tested on: M14; test: Growth inhibition of human M14 cells after 48 hrs by sulforhodamine B assay; details: M14, 48 h
# [15] = tested on: SK-MEL-2; test: Growth inhibition of human SK-MEL-2 cells after 48 hrs by sulforhodamine B assay; details: SK-MEL-2, 48 h; for TGI: read-out: pTGI (converted)
# [16] = tested on: SK-MEL-5; test: Growth inhibition of human SK-MEL-5 cells after 48 hrs by sulforhodamine B assay; details: SK-MEL-5, 48 h; for TGI: read-out: pTGI (converted)
# [17] = tested on: UACC-62; test: Growth inhibition of human UACC62 cells after 48 hrs by sulforhodamine B assay; details: UACC-62, 48 h; for TGI: read-out: pTGI (converted)
# [18] = tested on: IGROV-1; test: Growth inhibition of human IGROV1 cells after 48 hrs by sulforhodamine B assay; details: IGROV-1, 48 h; for TGI: read-out: pTGI (converted)
# [19] = tested on: OVCAR-3; test: Growth inhibition of human OVCAR3 cells after 48 hrs by sulforhodamine B assay; details: OVCAR-3, 48 h; for TGI: read-out: pTGI (converted)
# [20] = tested on: OVCAR-4; test: Growth inhibition of human OVCAR4 cells after 48 hrs by sulforhodamine B assay; details: OVCAR-4, 48 h; for TGI: read-out: pTGI (converted)
# [21] = tested on: NCI/ADR-RES; test: Growth inhibition of human NCI/ADR-RES cells after 48 hrs by sulforhodamine B assay
# [22] = tested on: 786-0; test: Growth inhibition of human 786-0 cells after 48 hrs by sulforhodamine B assay; details: 786-0, 48 h; for CC50: read-out: pLC50 (the source's name) (converted); for TGI: read-out: pTGI (converted)
# [23] = tested on: A498; test: Growth inhibition of human A498 cells after 48 hrs by sulforhodamine B assay; details: A498, 48 h; for TGI: read-out: pTGI (converted)
# [24] = tested on: ACHN; test: Growth inhibition of human ACHN cells after 48 hrs by sulforhodamine B assay; details: for TGI: read-out: pTGI (converted)
# [25] = tested on: CAKI-1; test: Growth inhibition of human Caki1 cells after 48 hrs by sulforhodamine B assay; details: CAKI-1, 48 h; for TGI: read-out: pTGI (converted)
# [26] = tested on: RXF 393; test: Growth inhibition of human RXF393 cells after 48 hrs by sulforhodamine B assay; details: RXF 393, 48 h; for TGI: read-out: pTGI (converted)
# [27] = tested on: SN12C; test: Growth inhibition of human SN12C cells after 48 hrs by sulforhodamine B assay; details: for TGI: read-out: pTGI (converted)
# [28] = tested on: TK-10; test: Growth inhibition of human TK10 cells after 48 hrs by sulforhodamine B assay; details: TK-10, 48 h; for TGI: read-out: pTGI (converted)
# [29] = tested on: MDA-MB-231; test: Growth inhibition of human MDA-MB-231/ATCC cells after 48 hrs by sulforhodamine B assay; details: MDA-MB-231, 48 h; for CC50: read-out: pLC50 (the source's name) (converted); for TGI: read-out: pTGI (converted)
# [30] = tested on: BT-549; test: Growth inhibition of human BT549 cells after 48 hrs by sulforhodamine B assay; details: BT-549, 48 h; for TGI: read-out: pTGI (converted)
# [31] = tested on: T47D; test: Growth inhibition of human T47D cells after 48 hrs by sulforhodamine B assay; details: for TGI: read-out: pTGI (converted)
# [32] = tested on: MDA-MB-468; test: Growth inhibition of human MDA-MB-468 cells after 48 hrs by sulforhodamine B assay; details: MDA-MB-468, 48 h
compound,measurement,setting,value
COc1cc(/C=C/c2cc(O)c3c(c2)C[C@@H]2C(C)(C)[C@H](O)CC[C@@]2(C)O3)cc(O)c1C/C=C(\C)CCC=C(C)C,GI50,[1],0.0339 µM
same,LC50,[1],100 µM
same,TGI,[1],0.245 µM
same,GI50,[2],0.479 µM
same,LC50,[2],30.2 µM
same,TGI,[2],8.13 µM
same,GI50,[3],5.89 µM
same,LC50,[3],55 µM
same,TGI,[3],21.4 µM
same,GI50,[4],3.39 µM
same,LC50,[4],43.7 µM
same,TGI,[4],14.1 µM
same,GI50,[5],1.91 µM
same,LC50,[5],52.5 µM
same,TGI,[5],11 µM
same,GI50,[6],0.575 µM
same,LC50,[6],7.24 µM
same,TGI,[6],2.24 µM
same,GI50,[7],0.851 µM
same,LC50,[7],9.33 µM
same,TGI,[7],2.95 µM
same,GI50,[8],1.12 µM
same,LC50,[8],7.94 µM
same,TGI,[8],2.95 µM
same,GI50,[9],1.23 µM
same,LC50 (concentration killing 50% of cells),[9],27.5 µM
same,TGI,[9],4.9 µM
same,GI50,[10],1.17 µM
same,LC50,[10],7.08 µM
same,TGI,[10],2.88 µM
same,GI50,[11],0.331 µM
same,LC50,[11],5.13 µM
same,TGI,[11],1.58 µM
same,GI50,[12],0.0759 µM
same,LC50,[12],10.7 µM
same,TGI,[12],2.63 µM
same,GI50,[13],0.525 µM
same,LC50,[13],4.68 µM
same,TGI,[13],1.91 µM
same,GI50,[14],1.1 µM
same,LC50,[14],18.6 µM
same,TGI,[14]; read-out: pTGI (converted),3.47 µM
same,GI50,[15],6.92 µM
same,LC50,[15],56.2 µM
same,TGI,[15],22.4 µM
same,GI50,[16],0.955 µM
same,LC50,[16],5.37 µM
same,TGI,[16],2.29 µM
same,GI50,[17],0.204 µM
same,LC50 (50% lethal concentration),[17],7.41 µM
same,TGI,[17],0.794 µM
same,GI50,[18],2.09 µM
same,LC50,[18],40.7 µM
same,TGI,[18],11 µM
same,GI50,[19],1.45 µM
same,LC50,[19],15.5 µM
same,TGI,[19],4.07 µM
same,GI50,[20],2.63 µM
same,LC50,[20],63.1 µM
same,TGI,[20],19.1 µM
same,GI50,[21],2.57 µM
same,LC50,[21],58.9 µM
same,TGI,[21]; read-out: pTGI (converted),10.2 µM
same,GI50,[22],0.0339 µM
same,CC50,[22],15.5 µM
same,TGI,[22],1.45 µM
same,GI50,[23],0.117 µM
same,LC50,[23],12 µM
same,TGI,[23],2.45 µM
same,GI50,[24],1.78 µM
same,LC50,[24],36.3 µM
same,TGI,[24],12 µM
same,GI50,[25],1.7 µM
same,LC50,[25],38.9 µM
same,TGI,[25],6.76 µM
same,GI50,[26],< 0.01 µM
same,LC50 (50% lethal concentration),[26],4.37 µM
same,TGI,[26],0.055 µM
same,GI50,[27],1.51 µM
same,LC50,[27],8.51 µM
same,TGI,[27],3.63 µM
same,GI50,[28],2.19 µM
same,LC50,[28],41.7 µM
same,TGI,[28],8.91 µM
same,GI50,[29],1.2 µM
same,CC50,[29],8.13 µM
same,TGI,[29],2.88 µM
same,GI50,[30],0.275 µM
same,LC50,[30],69.2 µM
same,TGI,[30],12 µM
same,GI50,[31],1.41 µM
same,LC50,[31],39.8 µM
same,TGI,[31],7.08 µM
same,GI50,[32],1.1 µM
same,LC50,[32],9.12 µM
same,TGI,[32]; read-out: pTGI (converted),3.16 µM
COc1cc(/C=C/c2cc3c(c(OC)c2)O[C@]2(C)CC[C@@H](O)C(C)(C)[C@H]2C3)cc(O)c1C/C=C(\C)CCC=C(C)C,GI50,[1],0.891 µM
same,LC50,[1],33.1 µM
same,TGI,[1],2.75 µM
same,GI50,[2],0.832 µM
same,LC50,[2],11 µM
same,TGI,[2],2.82 µM
same,GI50,[3],5.89 µM
same,LC50,[3],25.7 µM
same,TGI,[3],12.3 µM
same,GI50,[4],6.76 µM
same,LC50,[4],> 50.1 µM
same,TGI,[4],18.6 µM
same,GI50,[5],4.47 µM
same,LC50,[5],32.4 µM
same,TGI,[5],12.3 µM
same,GI50,[6],0.562 µM
same,LC50,[6],2.4 µM
same,TGI,[6],1.17 µM
same,GI50,[7],1.7 µM
same,LC50,[7],22.4 µM
same,TGI,[7],10 µM
same,GI50,[8],1.29 µM
same,LC50,[8],17.8 µM
same,TGI,[8],6.03 µM
same,GI50,[9],0.398 µM
same,LC50 (concentration killing 50% of cells),[9],13.2 µM
same,TGI,[9],2.63 µM
same,GI50,[10],1.35 µM
same,LC50,[10],18.6 µM
same,TGI,[10],6.03 µM
same,GI50,[11],1.23 µM
same,LC50,[11],14.1 µM
same,TGI,[11],3.98 µM
same,GI50,[12],0.417 µM
same,LC50,[12],19.5 µM
same,TGI,[12],7.76 µM
same,GI50,[13],1.41 µM
same,LC50,[13],15.8 µM
same,TGI,[13],5.01 µM
same,GI50,[15],5.37 µM
same,LC50,[15],27.5 µM
same,TGI,[15],12 µM
same,GI50,[16],0.955 µM
same,LC50,[16],6.92 µM
same,TGI,[16],2.34 µM
same,GI50,[17],1.07 µM
same,LC50 (50% lethal concentration),[17],13.8 µM
same,TGI,[17],3.8 µM
same,GI50,[18],5.75 µM
same,LC50,[18],30.9 µM
same,TGI,[18],13.5 µM
same,GI50,[19],3.63 µM
same,LC50,[19],23.4 µM
same,TGI,[19],10.5 µM
same,GI50,[20],5.75 µM
same,LC50,[20],28.8 µM
same,TGI,[20],12.9 µM
same,GI50,[22],0.123 µM
same,CC50,[22],4.17 µM
same,TGI,[22],0.363 µM
same,GI50,[23],1.82 µM
same,LC50,[23],21.9 µM
same,TGI,[23],8.32 µM
same,GI50,[24],2.75 µM
same,LC50,[24],21.4 µM
same,TGI,[24],9.33 µM
same,GI50,[25],1.12 µM
same,LC50,[25],> 50.1 µM
same,TGI,[25],6.61 µM
same,GI50,[26],0.0891 µM
same,LC50 (50% lethal concentration),[26],4.17 µM
same,TGI,[26],0.302 µM
same,GI50,[27],5.89 µM
same,LC50,[27],28.8 µM
same,TGI,[27],13.2 µM
same,GI50,[28],7.08 µM
same,LC50,[28],32.4 µM
same,TGI,[28],15.1 µM
same,GI50,[29],2.04 µM
same,CC50,[29],19.5 µM
same,TGI,[29],7.76 µM
same,GI50,[30],1.05 µM
same,LC50,[30],25.1 µM
same,TGI,[30],9.12 µM
same,GI50,[31],2.29 µM
same,LC50,[31],23.4 µM
same,TGI,[31],9.12 µM
